Data reported in article PMC4445328, “Azasugar inhibitors as pharmacological chaperones for Krabbe disease” (Chemical Science, 2015).
Read-outs that look alike come from different tables or passages of the source. Blank lines part the entries; values can stand above or below the compound they belong to.

Tests used:
[1] = molecular target: T1, β-galactocerebrosidase (GALC) (Mus musculus, UniProt P54818); experiment: GALC enzyme inhibition kinetics, Ki determination with chromogenic substrate 4NβDG; assay type: biochemical; settings: for Ki: pH 4.6, substrate 4-nitrophenyl-β-D-galactopyranoside, steady-state, competitive inhibition model; for times more potent inhibitors of GALC than pyrrolidine DIL and lactam IGL: pH 4.6, ratio of Ki values
T1 construct: made in house
T1 sequence (P54818 43-684): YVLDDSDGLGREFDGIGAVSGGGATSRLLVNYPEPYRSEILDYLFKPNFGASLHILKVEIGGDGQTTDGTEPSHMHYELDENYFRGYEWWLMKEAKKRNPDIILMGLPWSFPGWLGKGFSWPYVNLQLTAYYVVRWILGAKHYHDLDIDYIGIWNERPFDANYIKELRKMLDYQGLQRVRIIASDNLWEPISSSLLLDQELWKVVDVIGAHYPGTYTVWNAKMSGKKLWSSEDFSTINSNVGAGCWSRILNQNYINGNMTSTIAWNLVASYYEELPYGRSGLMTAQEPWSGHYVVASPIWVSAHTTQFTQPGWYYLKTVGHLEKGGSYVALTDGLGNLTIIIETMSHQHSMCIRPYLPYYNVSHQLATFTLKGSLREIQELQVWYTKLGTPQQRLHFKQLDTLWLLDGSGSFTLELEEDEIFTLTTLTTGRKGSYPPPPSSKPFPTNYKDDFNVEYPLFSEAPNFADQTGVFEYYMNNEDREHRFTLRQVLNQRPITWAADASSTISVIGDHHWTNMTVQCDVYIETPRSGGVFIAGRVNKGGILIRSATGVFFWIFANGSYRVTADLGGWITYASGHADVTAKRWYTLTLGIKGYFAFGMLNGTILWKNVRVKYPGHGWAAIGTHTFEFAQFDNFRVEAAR

GALC [2] = molecular target: T2, GALC (Mus musculus, UniProt P54818); experiment: Differential scanning fluorimetry (DSF) thermal shift of wild-type GALC; assay type: binding; settings: for ΔTm at 5000 µM / ΔTm1 pH 7.4 (first transition of double sigmoid melt curve) / ΔTm2 pH 7.4 (second transition of double sigmoid melt curve): 5.0 mM compound; for ΔTm at 5000 µM: triplicate; for additional increase of Tm over DGJ, DIL and IGL / increase of Tm of wild-type enzyme: pH 4.6, 5 mM; for ΔTm1 pH 7.4 (first transition of double sigmoid melt curve) / ΔTm2 pH 7.4 (second transition of double sigmoid melt curve): PBS pH 7.4
T2 construct: made in house
T2 sequence (P54818 43-684): T1 sequence (P54818 43-684)

[3] = pKaH and protonation state of azasugars; assay type: physicochemical; settings: pH 7.4, from pKaH
[4] = parameters: method as in PMID 11891910; settings: cited from earlier work
GALC E258Q = molecular target: T3, GALC E258Q (Mus musculus, UniProt P54818, E274Q); experiment: DSF thermal shift of GALC E258Q mutant; assay type: binding; settings: pH 7.4 PBS, 10 mM compound
T3 construct: made in house
T3 sequence (P54818 41-684 E274Q limits assumed): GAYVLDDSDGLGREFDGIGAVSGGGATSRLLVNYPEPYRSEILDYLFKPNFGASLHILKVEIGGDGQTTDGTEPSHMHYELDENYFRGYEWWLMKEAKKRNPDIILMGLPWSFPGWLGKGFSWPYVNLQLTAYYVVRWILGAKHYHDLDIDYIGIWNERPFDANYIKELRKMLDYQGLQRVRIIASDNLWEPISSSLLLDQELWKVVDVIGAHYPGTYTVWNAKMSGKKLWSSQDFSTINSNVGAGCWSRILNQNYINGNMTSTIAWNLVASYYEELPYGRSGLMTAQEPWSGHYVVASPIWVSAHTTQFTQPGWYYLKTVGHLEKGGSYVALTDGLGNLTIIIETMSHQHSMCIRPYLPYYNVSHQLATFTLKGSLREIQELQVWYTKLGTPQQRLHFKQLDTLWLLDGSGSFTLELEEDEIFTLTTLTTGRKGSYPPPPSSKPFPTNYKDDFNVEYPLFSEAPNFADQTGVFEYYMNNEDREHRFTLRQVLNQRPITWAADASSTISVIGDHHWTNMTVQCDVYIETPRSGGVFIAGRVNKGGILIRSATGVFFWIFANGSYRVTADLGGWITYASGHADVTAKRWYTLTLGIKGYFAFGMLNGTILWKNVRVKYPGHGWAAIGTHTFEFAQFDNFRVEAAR
Description: All molecules form stabilizing hydrogen bonds with the side chain of E258 in the active site (Fig. 8A). […] Thus E258 O^ε2 could be forming a tight electrostatic interaction with the charged nitrogen in the ring of these molecules. Mutation of E258 to glutamine allows for the maintenance of a hydrogen bond but not an electrostatic interaction. We expressed and purified the E258Q mutant and repeated the DSF experiments at both pH 4.6 and pH 7.4. The importance of this interaction between E258 and the candidate chaperone molecules is highlighted by the complete loss of stabilization of GALC E258Q at pH 4.6 by all molecules except lactam IGL, which is incapable of forming a salt bridge (Fig. 8B). At pH 7.4, the global stability conferred by piperidine IGF to the E258Q mutant has lost the double sigmoid features seen for the wild-type GALC at pH 7.4 (Fig. 4A and 8C). […] To further understand the nature of the GALC–IGF interaction that is conferring the double melt curve we carried out DSF experiments at a range of pH values. […]
DSF experiments were performed in 48-well plates, 50 μL reactions comprised 5.0 μg GALC and 5× SyPRO Orange dye in either PBS pH 7.4, 20 mM Tris pH 7.4 or 20 mM sodium acetate pH 4.6. […] SyPRO fluorescence was monitored on the HEX channel. […] Stabilization is expressed as the ΔT m compared to a protein-only control. […]

GALC [5] = molecular target: T2, GALC; experiment: GALC crystal soaks, X-ray ligand binding in the active site; settings: 20 mM ligand crystal soak; non-binders repeated for 1 hour and overnight
[6] = 50 mM, Fig. S2, pH 4.6 and pH 7.4
[7] = PBS pH 7.4, mean ± SEM, read-out: ΔTm pH 7.4
[8] = sodium acetate pH 4.6, mean ± SEM, read-out: ΔTm pH 4.6

Ki [1]: 7200 µM
stabilization of GALC (GALC [2]; [6]): no stabilization
Structure (SMILES): OC[C@H]1OC(O)[C@H](O)[C@@H](O)[C@H]1O (mixture of isomers) [galactose, reference compound]

stabilization of GALC (GALC [2]; [6]): no stabilization
Structure (SMILES): O=CC[C@@H](O)[C@@H](O)[C@H](O)CO [2-deoxy-galactose, reference compound]

molecules possessing a positive charge at pH 7.4 [3]: 2%
times more potent inhibitors of GALC than pyrrolidine DIL and lactam IGL [1]: greater than 80 times
Ki [1]: 0.63 ± 0.053 µM
ΔTm at 5000 µM (GALC [2]; [7]): 4.6 °C
ΔTm at 5000 µM (GALC [2]; [8]): 16.4 °C
additional increase of Tm over DGJ, DIL and IGL (GALC [2]): 8–9 degrees
Structure (SMILES): OC[C@H]1NNC[C@@H](O)[C@H]1O [AGF, aza-galacto-fagomine]
pKaH [4]: 5.7

ΔTm at 5000 µM (GALC [2]; [7]): 5.2 °C
increase of Tm of wild-type enzyme (GALC [2]): 6–8 degrees
Structure (SMILES): OCC1NCC(O)C(O)C1O (stereo not shown) [DGJ, 1-deoxy-galacto-nojirimycin, reference compound]

Structure (SMILES): OCC1C2CCC(N2)C(O)C1O (stereo not shown) [DGN, deoxy-galacto-noeurostegine]
ΔTm at 5000 µM (GALC [2]; [7]): -3.6 ± 0.1 °C
ΔTm at 5000 µM (GALC [2]; [8]): 1 °C
effect on global stability of wild-type GALC (GALC [2]; pH 7.4): destabilized GALC

Structure (SMILES): OC[C@H]1NC[C@@H](O)[C@H]1O [DIL]
Ki [1]: 130 ± 6 µM
ΔTm at 5000 µM (GALC [2]; [7]): 4 °C
ΔTm at 5000 µM (GALC [2]; [8]): 7.2 °C
increase of Tm of wild-type enzyme (GALC [2]): 6–8 degrees

stabilization of GALC (GALC [2]; up to 10 mM, either pH (4.6 or 7.4), Fig. S2): unable to stabilize GALC
Structure (SMILES): OC[C@H]1NC[C@H](O)[C@@H](O)[C@@H]1O [DNJ, 1-deoxynojirimycin, reference compound]

molecules possessing a positive charge at pH 7.4 [3]: 96%
times more potent inhibitors of GALC than pyrrolidine DIL and lactam IGL [1]: greater than 80 times
Ki [1]: 0.38 ± 0.026 µM
higher Tm2 with GALC E258Q (GALC E258Q): abolished
ΔTm1 pH 7.4 (first transition of double sigmoid melt curve) (GALC [2]): 4 °C
ΔTm2 pH 7.4 (second transition of double sigmoid melt curve) (GALC [2]): 21 °C
ΔTm1 pH 7.4 (first transition of double sigmoid melt curve) (GALC [2]; listed as IGF1): +4.0 ± 0.3 °C
ΔTm2 pH 7.4 (second transition of double sigmoid melt curve) (GALC [2]; listed as IGF2): +21.0 ± 0.2 °C
ΔTm at 5000 µM (GALC [2]; [8]): 17.7 °C
additional increase of Tm over DGJ, DIL and IGL (GALC [2]): 8–9 degrees
Structure (SMILES): OC[C@H]1CNC[C@@H](O)[C@H]1O [IGF, iso-galacto-fagomine]
pKaH [4]: 8.8

Ki [1]: 52 ± 3 µM
ΔTm at 5000 µM (GALC [2]; [7]): 1.6 °C
ΔTm at 5000 µM (GALC [2]; [8]): 8.1 °C
increase of Tm of wild-type enzyme (GALC [2]): 6–8 degrees
Structure (SMILES): O=C1NC[C@H](CO)[C@H](O)[C@@H]1O [IGL, iso-galacto-fagomine lactam]

binding in GALC crystals (difference electron density in active site) (GALC [5]): not observed to bind
change in Tm (GALC [2]; either pH (4.6 or 7.4), data not shown): No change in T m
Structure (SMILES): CN1[C@@H](CC(=O)c2ccccc2)CCC[C@H]1C[C@H](O)c1ccccc1 [α-lobeline, reference compound]
